# In patent US20100029646A1, “PRODRUGS OF DIPHENYL OX-INDOL-2-ONE COMPOUNDS” (Topo Target A/S, priority 2006, published 2010):
row,SMILES,melting point [°C]
1,O=C(Nc1ccccc1)Oc1ccc(C2(c3ccc(OC(=O)Nc4ccccc4)cc3)C(=O)Nc3c2ccc(F)c3F)cc1,163 to 165
2,"O=C1N(CCO)c2c(ccc(F)c2F)C1(c1ccc(O)cc1)c1ccc(F)cc1 (stereo not drawn) [Compound 1007, 6,7-Difluoro-3-(4-fluorophenyl)-1-(2-hydroxyethyl)-3-(4-hydroxyphenyl)-1,3-dihydro-2H-indol-2-one]",80 to 83
3,"O=C(CCN1CCOCC1)Oc1ccc(C2(c3ccc(F)cc3)C(=O)Nc3c2ccc(F)c3F)cc1 (stereo not drawn) [Compound 1009, 4-[6,7-Difluoro-3-(4-fluorophenyl)-2-oxo-2,3-dihydro-1H-indol-3-yl]phenyl 3-morpholinopropanoate]",174 to 175
4,"CN1CCN(CCC(=O)Oc2ccc(C3(c4ccc(F)cc4)C(=O)Nc4c3ccc(F)c4F)cc2)CC1 (stereo not drawn) [Compound 1010, 4-[6,7-Difluoro-3-(4-fluorophenyl)-2-oxo-2,3-dihydro-1H-indol-3-yl]phenyl 3-(4-methylpiperazino)propanoate]",149 to 151
5,"COc1ccc(C2(c3ccc(OCOC(=O)OC(C)C)cc3)C(=O)N(COC(=O)OC(C)C)c3ccccc32)cc1 (stereo not drawn) [Compound 1011, [3-(4-{[(Isopropoxycarbonyl)oxy]methoxy}phenyl)-3-(4-methoxyphenyl)-2-oxo-2,3-dihydro-1H-indol-1-yl]methyl isopropyl carbonate]",63 to 65
6,"C=CC(=O)Oc1ccc(C2(c3ccc(F)cc3)C(=O)Nc3c2ccc(F)c3C)cc1 (stereo not drawn) [Compound 1016, 4-[6-Fluoro-3-(4-fluorophenyl)-7-methyl-2-oxo-2,3-dihydro-1H-indol-3-yl]phenyl acrylate]",223 to 225
